Source: patent publication US20170172944A1, “METHODS OF TREATING MELANOMA” (Mitchell Woods Pharmaceuticals, Inc., priority 2014, published 2017)

How the values were obtained:
Type in all cases: cell-based, human
[1] = test system: eukaryotic elongation factor 2 (eEF2) in M93-047 cells; test: eEF2 phosphorylation (Western blot), M93-047; conditions: M93-047, serum starved 3 hours, 1 fM to 10 μM, 15 minutes
Experimental: (§1) Cells were lysed with RIPA buffer containing EGTA and EDTA (Boston BioProducts, Ashland, Mass.). The lysis buffer was mixed with a protease inhibitor cocktail (Sigma-Aldrich). Protein concentrations were measured using the bicinchoninic acid reagent (Thermo-Pierce Biotechnology, Inc., Rockford, Ill.). Proteins (20 μg/well) were separated on 4-12% precast gels (Invitrogen, Carlsbad, Calif.) using SDS-polyacrylamide gel electrophoresis under reducing conditions and were electrophoretically transferred onto polyvinylidene fluoride membrane (Invitrogen). Western blots were performed according to standard methods. The visualization of immunoreactive bands was performed using the ECL Plus Western Blotting Detection System (GE Healthcare, NJ) and their quantification was done by volume densitometry using Image J software and normalization to β-actin. […]
(§2) UACC-647, M93-047 and UACC-903 cells were serum starved for 3 hours and subjected to concentration gradient of (R,R′)-MNF (1 fM to 10 μM) or vehicle (DMSO, 0.1%) for 15 minutes. […] Proteins of interest were detected using (phospho)specific antibodies of rabbit origin and visualized by chemiluminescence. […] Levels of total and phosphorylated form of eEF2 were quantified in (R,R′)-MNF-treated cells by means of volume densitometry.

M93-047 cells [2] = test: Scratch wound healing assay, M93-047; conditions: M93-047, 100 pM to 10 μM, 24 hours
Experimental: (§3) A scratch wound was made with a cell scraper. Cells were pictured using Axiovert 200 microscope and AxioCam HRc camera. (Carl Zeiss)
(§4) UACC-647, M93-047 and UACC-903 cells were cultured until confluency. Uniform scratch wounds were made on the monolayer cultures using cell scraper and the cells were challenge with (R,R′)-MNF (100 pM to 10 μM) or vehicle (DMSO, 0.1%). Images were captured at the onset of the treatment and after 24 hours.

[3] = test system: phosphorylated ERK in M93-047 cells; test: Phosphorylated ERK levels, M93-047; conditions: M93-047, serum starved 3 hours, 15 minutes
Experimental: (§5) Levels of ERK1/2 and its phosphorylated forms were determined using PathScan ELISA kits according to manufacturer's protocol (Perkin Elmer Alphascreen Surefire ERK1/2 assay kit, cat no. TGRES500).
(§6) UACC-647, M93-047 or UACC-903 cells were serum starved for 3 hours and subjected to compound of interest or vehicle for 15 minutes.

[4] = test system: eukaryotic elongation factor 2 (eEF2) in UACC-647 cells; test: eEF2 phosphorylation (Western blot), UACC-647; conditions: UACC-647, serum starved 3 hours, 1 fM to 10 μM, 15 minutes
Experimental: as §1, §2

UACC647 cells [5] = test: [3H]-thymidine incorporation assay; conditions: serum-starved UACC647 cells, 24 hours
Experimental: [^3H]-Thymidine Incorporation Assay.
Cells were seeded in 12-well plates at approximately 50,000 cells/well and incubated at 37° C. After 24 hours, the wells were rinsed with PBS and replaced with serum-free medium containing the appropriate concentration of the test compounds. After another 24-hour incubation at 37° C., 1 μCi of [^3H]-thymidine was added to each well and incubated at 37° C. for 16 hours. [^3H]-Thymidine incorporation into DNA was monitored after the cells were washed twice with PBS and then lysed in 600 μl of 0.1 N NaOH for 30 minutes with shaking. The lysate was then mixed with 3 mL of liquid scintillation cocktail (Beckman Coulter, Inc., Brea, Calif.), and radioactivity was measured by liquid scintillation counting using Beckman Coulter LS6000IC Scintillation Counter. Data are shown as CPM incorporated compared to the control cells.
(§7) UACC-647, M93-047 and UACC-903 cells were seeded out on E-Plates and allowed to settle. Cells were stimulated with MNF. Cellular proliferation and adherence was measured every 15 minutes using xCELLigence RTCA station. Serum-starved UACC647 cells were incubated with range of (R,R′)-MNF concentrations for 24 hours and the levels of [3H]thymidine incorporation were measured.

M93-047 cells [6] = test: Proliferation assay (xCELLigence RTCA), M93-047; conditions: M93-047, E-Plates, measured every 15 minutes
Experimental: (§8) UACC-647, M93-047 and UACC-903 cells were seeded out on E-Plates and allowed to settle. Cells were stimulated with MNF. Cellular proliferation and adherence was measured every 15 min using xCELLigence RTCA station.
as §7

[7] = test system: phosphorylated MEK in UACC-647 cells; test: Phosphorylated MEK levels, UACC-647
Experimental: (R,R′)-MNF decreased basal phosphorylation levels of ERK and MEK. UACC-647, M93-047 or UACC-903 cells were serum starved for 3 hours and subjected to compound of interest or vehicle for 15 minutes. […] Cell pretreatment with 50 nM ICI 118,551 abolished MNF-evoked drop in phospho ERK levels in UACC647.

UACC-647 cells [8] = test: Scratch wound healing assay, UACC-647; conditions: UACC-647, 100 pM to 10 μM, 24 hours
Experimental: as §3, §4

M93-047 cells [9] = test: Migration and invasion towards 10% FBS (xCELLigence RTCA), M93-047
Experimental: (§9) Assays were performed using xCELLigence RTCA Analyzer. Serum-starved cells were allowed to migrate or invade towards 10% FBS via bare microporous PET membrane or Matrigel-coated membrane, respectively.
(§10) Migration and Invasion Assay.
(§11) Migration and invasion of UACC-647, M93-047 and UACC-903 towards 10% FBS were monitored using xCELLigence system
(§12) Serum-starved UACC-647, M93-047 and UACC-903 cells were plated onto unmodified or Matrigel-coated CIM-Plates. The cells were treated with (R,R′)-MNF or vehicle (DMSO, 0.1%). Migration and invasion towards 10% FBS was monitored using xCELLigence RTCA station. Times of half-maximal infiltration of the cells towards serum were calculated and plotted against (R,R′)-MNF concentration.

[10] = test system: melanoma cells (UACC-647, M93-047 and UACC-903); test: [35S] methionine labeling, de novo protein synthesis; conditions: 10 fM, 10 pM, 10 nM for 15 minutes, then [35S]Met/Cys labeling 30 minutes
Experimental: [^35S] Methionine Labeling.
Serum starved cells were incubated in serum-free medium without methionine and cysteine and treated with (R,R′)-MNF. Then, [^35S]Met/Cys labeling was carried out. Cell lysates were resolved by SDS-polyacrylamide gel electrophoresis and transferred onto PVD membrane, and autoradiography was performed. The membrane was probed with anti-β-actin antibody to confirm equal protein loading.
Serum starved (3 hours) UACC-647, M93-047 and UACC-903 cells were washed with PBS and incubated in serum-free medium without methionine and cysteine. Then, cells were treated with (R,R′)-MNF (10 fM, 10 pM, 10 nM) or incubated with vehicle (DMSO, 0.1%) for 15 minutes followed by [35S]Met/Cys labeling for 30 minutes. Cell lysates were resolved by SDS-PAGE and transferred onto PVD membrane, and autoradio-graphy was performed. The membrane was probed with anti-β-actin antibody to confirm equal protein loading. Amounts of de novo synthesized proteins were evaluated by means of volume densitometry. Obtained values were normalized to β-actin levels.

UACC-903 cells = test: Proliferation assay (xCELLigence RTCA), UACC-903; conditions: UACC-903 cells (lacking EGFR)
Experimental: as §8, §7

UACC-647 cells [11] = test: Migration and invasion towards 10% FBS (xCELLigence RTCA), UACC-647; conditions: for migratory rate / effect of pretreatment on anti-migratory activity of MNF (100 nM): UACC-647, H-89 20 μM; for migratory rate: MNF 100 nM, Forskolin 10 μM; for effect of pretreatment on anti-migratory activity of MNF (100 nM): ICI 118,551 50 nM
Experimental: as §9, §10, §11, §12
ICI 118,551 and H-89 pretreatment blocked inhibitory activity of (R,R′)-MNF on UACC-647, while Forskolin mimicked (R,R′)-MNF. UACC-647 were serum-starved, pretreated with ICI 118,551, Forskolin, H-89 or DMSO and plated onto unmodified CIM-Plates. Migration towards 10% FBS was monitored using xCELLigence RTCA station. […] Forskolin (activator of adenylyl cyclase, 10 μM) mimicked MNF (100 nM). […] Pretreatment with H-89 blocked anti-migratory activity of MNF (100 nM).

UACC647 cells [12] = test: Proliferation assay (xCELLigence RTCA), UACC647; conditions: UACC647, E-Plates, measured every 15 minutes
Experimental: as §8, §7

[13] = test system: phosphorylated ERK in UACC-647 cells; test: Phosphorylated ERK levels, UACC-647
Experimental: as §5, §6

Row | Compound | rapid phosphorylation of eEF2 [1] | motility (scratch wound) (M93-047 cells [2]) | nadir of U-shaped dose-response curve of phosphorylated ERK levels [3] [nM] | rapid phosphorylation of eEF2 [4] | IC50 (UACC647 cells [5]; Homo sapiens) [nM] | inhibition of incorporation of radiolabelled thymidine (UACC647 cells [5]; range of concentrations) [%] | proliferation (M93-047 cells [6]) | levels of phosphorylated MEK [7] | motility (scratch wound) (UACC-647 cells [8]) | invasion towards 10% FBS (M93-047 cells [9]; M93-047, Matrigel-coated CIM-Plates) | migration towards 10% FBS (M93-047 cells [9]; M93-047, unmodified CIM-Plates) | de novo protein synthesis [10] | growth (UACC-903 cells) | invasion towards 10% FBS (UACC-647 cells [11]; UACC-647, Matrigel-coated CIM-Plates) | migration towards 10% FBS (UACC-647 cells [11]; UACC-647, unmodified CIM-Plates) | migratory rate (UACC-647 cells [11]) | proliferation (UACC647 cells [12]) | nadir of U-shaped dose-response curve of phosphorylated ERK levels ([13]; UACC 647, serum starved 3 hours, 15 minutes) [nM] | effect of pretreatment on anti-migratory activity of MNF (100 nM) (UACC-647 cells [11]) | effect of pretreatment on MNF-evoked drop in phospho ERK levels ([13]; UACC647, pretreatment 50 nM)
1 | COc1ccc(C[C@@H](C)NC[C@H](O)c2cc(O)cc(O)c2)c2ccccc12 [(R,R′)-MNF, (R,R′)-4′-methoxy-1-naphthylfenoterol] | induce rapid phosphorylation | inhibit motility | 1 | induce rapid phosphorylation | 136 | 38±3.67 | inhibit proliferation | decreased | inhibit motility | inhibit | inhibit migration | inhibit | did not inhibit | inhibit | inhibit migration | decreased migratory rate | inhibit proliferation | 1 |  | 
2 | O=S(=O)(NCCNC/C=C/c1ccc(Br)cc1)c1cccc2cnccc12 [H-89, reference compound] |  |  |  |  |  |  |  |  |  |  |  |  |  |  |  | increased migratory rate |  |  | blocked | 
3 | Cc1ccc(OCC(O)C(C)NC(C)C)c2c1CCC2 (stereo not shown) [ICI 118,551, 3-(isopropylamino)-1-[(7-methyl-4-indanyl)oxy]butan-2-ol, reference compound] |  |  |  |  |  |  |  |  |  |  |  |  |  |  |  |  |  |  | completely abolished | abolished
